The source of these data is paper PMC4673326, “Design and Synthesis of a Novel Cationic Peptide with Potent and Broad-Spectrum Antimicrobial Activity” (BioMed Research International, 2015).

Broadly, the MIC is the lowest concentration found to suppress growth. A lower MIC goes with a more susceptible organism.

What all share (assay type): cell-based
One series has as its system Klebsiella. In words: MIC, serial dilution method. To be noted: Klebsiella aeruginosa (so in the source); serial dilution 512-0.5 μg/mL, Luria-Bertani, 37°C, 16 to 18 hours; mean of three independent experiments in duplicate. Here is the method:
(§1) Two Gram-positive bacteria, 3 Gram-negative bacteria, and 2 fungi were selected to measure antibacterial activity of peptides. The strains were provided by Department of Microbiology in China Pharmaceutical University and were stored at 4°C until use.
Antimicrobial activity was evaluated using an inhibition zone assay or determination of the minimal inhibitory concentration (MIC) value with minor modifications as described previously: • Inhibition zone assay: agar plates were seeded with strains (about 10^6 cells in 10 mL of 1% agar medium). Wells (3 mm in diameter) were punched out and a 5 μL peptide sample dissolved in water was loaded. Controls were loaded with water. After incubation at 37°C overnight, the diameter of the inhibition zone was determined. • Determination of the MIC value: MICs were determined using a standard serial dilution method in appropriate medium for each bacterial strain listed in Table 3. In brief, 1 mL of different peptides dilution solutions was poured into a series of sterile plates, and then 9 mL appropriate medium that was preincubated at 37°C was added into a plate and was mixed gently to reach various concentrations (512, 256, 128, 64, 32, 16, 8, 4, 2, 1, and 0.5 μg/mL). Bacteria were added to the 96-well plates. The amount of bacteria for each spot is approximately 10^4 to 10^5 CFU/mL. After incubating the inoculated plate at 37°C for 16 to 18 hours, MICs were determined as the lowest peptide concentration that inhibited bacterial growth. […]

A further series deals with Aspergillus niger. The method, then:
as §1
(§2) Antimicrobial activity was evaluated using an inhibition zone assay or determination of the minimal inhibitory concentration (MIC) value with minor modifications as described previously: • Inhibition zone assay: agar plates were seeded with strains (about 10^6 cells in 10 mL of 1% agar medium). Wells (3 mm in diameter) were punched out and a 5 μL peptide sample dissolved in water was loaded. Controls were loaded with water. After incubation at 37°C overnight, the diameter of the inhibition zone was determined. • Determination of the MIC value: MICs were determined using a standard serial dilution method in appropriate medium for each bacterial strain listed in Table 3. In brief, 1 mL of different peptides dilution solutions was poured into a series of sterile plates, and then 9 mL appropriate medium that was preincubated at 37°C was added into a plate and was mixed gently to reach various concentrations (512, 256, 128, 64, 32, 16, 8, 4, 2, 1, and 0.5 μg/mL). Bacteria were added to the 96-well plates. The amount of bacteria for each spot is approximately 10^4 to 10^5 CFU/mL. After incubating the inoculated plate at 37°C for 16 to 18 hours, MICs were determined as the lowest peptide concentration that inhibited bacterial growth. All MICs were determined in two independent experiments performed in duplicate.

For another series, the system named is Escherichia coli. Here is the method:
as §1, §2

A further series concerns Pseudomonas aeruginosa. The method, then:
as §1, §2

The next series relates to Staphylococcus aureus. The method, then:
as §1, §2

Series [1] concerns Staphylococcus epidermidis. The method, then: as §1, §2
The next series deals with human red blood cells. In words: Hemolytic assay. Particulars: human RBC in PBS pH 7.4, 37°C, 1 h, absorbance 415 nm. Here is the method:
Hemolytic activity was determined by the procedure of Yoshida et al. with slight modifications. Fresh human blood (1 mL) was centrifuged at 1000 ×g for 5 min and the precipitates were collected and then washed 3 times with phosphate buffered saline (PBS) (pH 7.4). Precipitates were resuspended in 4-fold volumes of PBS. Then, 995 μL of PBS solution containing serial diluted peptides was added to a human erythrocyte solution of 5 μL. The resulting solution was incubated at 37°C for 1 h and was centrifuged at 1000 ×g for 5 min. The supernatant was diluted 5-fold with PBS and was monitored at 415 nm using a UV spectrophotometer. Zero hemolysis (blank) and 100% hemolysis were determined in PBS and 1% Triton X-100, respectively.

Ends that are not written are not given here.

Turning to KFRWGKPV-NH2 [KPV-8], the MIC (in the series with Klebsiella; in the series on Aspergillus niger; in the series with Escherichia coli; against Pseudomonas aeruginosa; against Staphylococcus aureus; in series [1]) was >512 µg/mL in each case.

As for KWKYPKLLKKLLK [KW-13], the MIC against Klebsiella was 128 µg/mL; against Aspergillus niger, 256 µg/mL; against Escherichia coli it was 64 µg/mL; in the series on Pseudomonas aeruginosa, 128 µg/mL; with Staphylococcus aureus, 16 µg/mL; in series [1], 4 µg/mL. For the same substance, the hemolysis with human red blood cells (100% = 1% Triton X-100, tested at 10, 40, 160 and 640 μg/mL, value holds even at 640 μg/mL) is given as < 1%.

Consider KWKKPKLLKKLLK [KWKK-13], for which the minimum inhibitory concentration (MIC) is recorded as >512 µg/mL against Klebsiella; >512 µg/mL in the series with Aspergillus niger; 256 µg/mL against Escherichia coli; >512 µg/mL in the series on Pseudomonas aeruginosa; >512 µg/mL against Staphylococcus aureus; >512 µg/mL in series [1].

For KWKLFKKIWGKPV-NH2 [KPV-13], the MIC in the series with Klebsiella is reported as >512 µg/mL; in the series with Aspergillus niger, >512 µg/mL; against Escherichia coli it was 512 µg/mL; against Pseudomonas aeruginosa it was >512 µg/mL; in the series on Staphylococcus aureus it was >512 µg/mL; in series [1], 32 µg/mL.

With Melittin [reference compound], the “concentration causing the lysis of whole erythrocytes” value in the series with human red blood cells was “below 40 μg/mL”.

As for RRWWRFPPPRFPPRFPPP-NH2 [RFPP-18], the MIC against Klebsiella was >512 µg/mL; in the series on Aspergillus niger, >512 µg/mL; against Escherichia coli, 128 µg/mL; in the series with Pseudomonas aeruginosa it was 256 µg/mL; against Staphylococcus aureus, >512 µg/mL; in series [1] it was 512 µg/mL.

RRWWRFPRFFRRFFR-NH2 [RFFR-15]: the MIC is on record as >512 µg/mL against Klebsiella; >512 µg/mL in the series on Aspergillus niger; 256 µg/mL against Escherichia coli; >512 µg/mL against Pseudomonas aeruginosa; 64 µg/mL against Staphylococcus aureus; 128 µg/mL in series [1].
